ChEMBL document CHEMBL6127136, “Discovery of 1-(Phenylsulfonyl)-1,2,3,4-tetrahydroquinoline Derivative as Orally Bioavailable and Safe RORγt Inverse Agonists for Potential Treatment of Rheumatoid Arthritis” (J Med Chem, 2024)
Active and inactive are the calls of the source. No cut-off for these calls is given here.

Columns and labels:
Mus musculus [1] = experiment: Antiinflammatory activity against imiquimod-induced psoriasis-like skin inflammation in Balb/c mouse model assessed as reduction in IL-17A level in peripheral blood preadministered with IMQ for 3 days followed by intragastric compound administration from day 4 and measured on day 13 by ELISA; type: functional, organism-based; conditions: dose 5-15 mg/kg, route ig, time 10.0 day
[2] = Cmax in male DBA/1 mouse at 20 mg/kg, po measured after 24 hrs by HPLC analysis; type: ADME, organism-based; conditions: in vivo
[3] = Tmax in male DBA/1 mouse at 5 mg/kg, iv measured after 24 hrs by HPLC analysis; type: ADME, organism-based; conditions: in vivo
[4] = Oral bioavailability in male DBA/1 mouse at 20 mg/kg measured after 24 hrs by HPLC analysis; type: ADME, organism-based; conditions: in vivo
Mus musculus [5] = experiment: (§1) Antiinflammatory activity against imiquimod-induced psoriasis-like skin inflammation in Balb/c mouse model assessed as decrease in IL-17A expression in skin at 15 mg/kg, IG preadministered with IMQ for 3 days followed by compound administration from day 4 and measured on day 14 by immunohistochemical analysis; type: functional, organism-based; conditions: time 11.0 day
[6] = Toxicity in imiquimod-induced psoriasis-like skin inflammation Balb/c mouse model assessed as change in body weight at 5 to 15 mg/kg, IG preadministered with IMQ for 3 days followed by compound administration from day 4 and measured on day 14; type: organism-based; conditions: in vivo, po, 264 h, dose 5-15 mg/kg, time 11 day
[7] = AUC (0 to t) in male DBA/1 mouse at 5 mg/kg, iv measured after 24 hrs by HPLC analysis; type: ADME, organism-based; conditions: in vivo
Mus musculus [8] = experiment: (§2) Antiinflammatory activity against imiquimod-induced psoriasis-like skin inflammation in Balb/c mouse model assessed as attenuation of skin layer thickening at 15 mg/kg, IG preadministered with IMQ for 3 days followed by compound administration from day 4 and measured on day 14 by H and E staining based analysis; type: functional, organism-based; conditions: time 11.0 day
[9] = AUC (0 to infinity) in male DBA/1 mouse at 5 mg/kg, iv measured after 24 hrs by HPLC analysis; type: ADME, organism-based; conditions: in vivo
[10] = AUC (0 to t) in male DBA/1 mouse at 20 mg/kg, po measured after 24 hrs by HPLC analysis; type: ADME, organism-based; conditions: in vivo
Mus musculus [11] = experiment: Antiinflammatory activity against imiquimod-induced psoriasis-like skin inflammation in Balb/c mouse model assessed as reduction in total psoriasis area preadministered with IMQ for 3 days followed by intragastric compound administration from day 4 and measured on day 14; type: functional, organism-based; conditions: dose 10-15 mg/kg, route ig, time 11.0 day
[12] = target: T1, Nuclear receptor ROR-gamma (Homo sapiens, UniProt P51449); experiment: Inverse agonist activity at N-terminal 6-His-tagged/APC-labeled human RORgammat LBD extracted from Escherichia coli assessed as inhibition of europium-labeled SRC-1 recruitment incubated for 3 hrs by TR-FRET analysis
T1 sequence (P51449 whole entry): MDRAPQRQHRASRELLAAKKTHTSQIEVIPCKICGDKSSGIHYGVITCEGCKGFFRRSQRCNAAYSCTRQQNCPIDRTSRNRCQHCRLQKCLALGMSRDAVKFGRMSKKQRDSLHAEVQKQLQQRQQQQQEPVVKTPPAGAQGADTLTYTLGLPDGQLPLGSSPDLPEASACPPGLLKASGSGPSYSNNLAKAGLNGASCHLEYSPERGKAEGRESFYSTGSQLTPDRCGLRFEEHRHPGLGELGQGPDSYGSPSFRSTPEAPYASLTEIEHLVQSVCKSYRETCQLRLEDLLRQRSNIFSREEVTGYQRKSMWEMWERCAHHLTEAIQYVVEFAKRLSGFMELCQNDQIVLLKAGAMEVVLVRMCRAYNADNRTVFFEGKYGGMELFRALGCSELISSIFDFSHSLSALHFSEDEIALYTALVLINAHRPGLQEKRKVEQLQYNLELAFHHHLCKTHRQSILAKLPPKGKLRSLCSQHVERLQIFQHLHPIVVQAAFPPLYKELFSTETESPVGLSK

Mus musculus [13] = experiment: as §2, with “decrease in dermal telangiectasia” for “attenuation of skin layer thickening”; type: functional, organism-based; conditions: time 11.0 day
Mus musculus [14] = experiment: (§3) Antiinflammatory activity against imiquimod-induced psoriasis-like skin inflammation in Balb/c mouse model assessed as decrease in IL-17F expression in skin preadministered with IMQ for 3 days followed by intragastric compound administration from day 4 and measured on day 14 by immunohistochemical analysis; type: functional, organism-based; conditions: dose 5-15 mg/kg, route ig, time 11.0 day
Mus musculus [15] = experiment: as §1, with “IL-23” for “IL-17A”; type: functional, organism-based; conditions: time 11.0 day
[16] = Clearance in male DBA/1 mouse at 5 mg/kg, iv measured after 24 hrs by HPLC analysis; type: ADME, organism-based; conditions: in vivo
Mus musculus [17] = experiment: Antiinflammatory activity against imiquimod-induced psoriasis-like skin inflammation in Balb/c mouse model assessed as reduction in total psoriasis severity index preadministered with IMQ for 3 days followed by intragastric compound administration from day 4 and measured on day 14; type: functional, organism-based; conditions: dose 10-15 mg/kg, route ig, time 11.0 day
Mus musculus [18] = experiment: as §2, with “reduction in mononuclear cell infiltration in” for “attenuation of”, “skin” for “skin layer thickening”; type: functional, organism-based; conditions: time 11.0 day
[19] = Half-life in male DBA/1 mouse at 5 mg/kg, iv measured after 24 hrs by HPLC analysis; type: ADME, organism-based; conditions: in vivo
[20] = Half-life in male DBA/1 mouse at 20 mg/kg, po measured after 24 hrs by HPLC analysis; type: ADME, organism-based; conditions: in vivo
[21] = Tmax in male DBA/1 mouse at 20 mg/kg, po measured after 24 hrs by HPLC analysis; type: ADME, organism-based; conditions: in vivo
[22] = AUC (0 to infinity) in male DBA/1 mouse at 20 mg/kg, po measured after 24 hrs by HPLC analysis; type: ADME, organism-based; conditions: in vivo
Mus musculus [23] = experiment: Antiinflammatory activity against imiquimod-induced psoriasis-like skin inflammation in Balb/c mouse model assessed as reduction in IL-23 level in peripheral blood preadministered with IMQ for 3 days followed by intragastric compound administration from day 4 and measured on day 13 by ELISA; type: functional, organism-based; conditions: dose 5-15 mg/kg, route ig, time 10.0 day
Mus musculus [24] = experiment: as §3, with “IL-23” for “IL-17F”; type: functional, organism-based; conditions: dose 5-15 mg/kg, route ig, time 11.0 day
Mus musculus [25] = experiment: as §3, with “IL-17A” for “IL-17F”; type: functional, organism-based; conditions: dose 5-15 mg/kg, route ig, time 11.0 day
Mus musculus [26] = experiment: as §2, with “reduction in inflammatory cell infiltration in” for “attenuation of”, “skin” for “skin layer thickening”; type: functional, organism-based; conditions: time 11.0 day
Mus musculus [27] = experiment: Antiinflammatory activity against imiquimod-induced psoriasis-like skin inflammation in Balb/c mouse model assessed as reduction in IL-17F level in peripheral blood preadministered with IMQ for 3 days followed by intragastric compound administration from day 4 and measured on day 13 by ELISA; type: functional, organism-based; conditions: dose 5-15 mg/kg, route ig, time 10.0 day
HUVEC = experiment: Antiproliferative activity against HUVEC cells assessed as inhibition of colony formation at 2 to 8 uM incubated for 7 days by crystal violet staining based light microscopic analysis; type: toxicity, cell-based; conditions: human, 168 h, dose 2-8 µM, time 7 day
[28] = target: T1, Nuclear receptor ROR-gamma; experiment: Inverse agonist activity at GAL4 DNA-binding domain fused RORgamma (unknown origin) transfected in HEK293T cells co-transfected with GAL4-promoter driven luciferase reporter gene assessed as inhibition of RORgammat transcription incubated for 18 to 20 hrs by plate reader analysis; type: cell-based
HeLa = experiment: Antiproliferative activity against human HeLa cells assessed as inhibition of colony formation at 2 to 8 uM incubated for 7 days by crystal violet staining based light microscopic analysis; type: toxicity, cell-based; conditions: 168 h, dose 2-8 µM, time 7 day
[29] = Cmax in male DBA/1 mouse at 5 mg/kg, iv measured after 24 hrs by HPLC analysis; type: ADME, organism-based; conditions: in vivo
Mus musculus [30] = experiment: as §1, with “IL-17F” for “IL-17A”; type: functional, organism-based; conditions: time 11.0 day

Compound: CCC1CCc2cc(C(C)C)ccc2N1S(=O)(=O)c1ccc(OCC2CCOCC2)c(CO)c1 (racemic)
- Activity (Mus musculus [1]): Dose-Dependent Effect
- Cmax [2]: 485 ng/mL
- Tmax [3]: 4.98 min
- bioavailability [4]: 48.1%
- Activity (Mus musculus [5]): Active
- Activity [6]: Non-Toxic
- AUC(0-t) at 24 h [7]: 995 ng·h/mL
- Activity (Mus musculus [8]): Active
- AUC(0-inf) [9]: 1020 ng·h/mL
- AUC(0-t) at 24 h [10]: 1890 ng·h/mL
- Activity (Mus musculus [11]): Dose-Dependent Effect
- IC50 [12]: 3.5 nM
- Activity (Mus musculus [13]): Active
- Activity (Mus musculus [14]): Dose-Dependent Effect
- Activity (Mus musculus [15]): Active
- clearance [16]: 81.9 mL/min/kg
- Activity (Mus musculus [17]): Dose-Dependent Effect
- Activity (Mus musculus [18]): Active
- half-life [19]: 3.87 h
- half-life [20]: 4.67 h
- Tmax [21]: 0.5 h
- AUC(0-inf) [22]: 1960 ng·h/mL
- Activity (Mus musculus [23]): Dose-Dependent Effect
- Activity (Mus musculus [24]): Dose-Dependent Effect
- Activity (Mus musculus [25]): Dose-Dependent Effect
- Activity (Mus musculus [26]): Active
- Activity (Mus musculus [27]): Dose-Dependent Effect
- Activity (HUVEC): Non-Toxic
- IC50 [28]: 21 nM
- Activity (HeLa): Non-Toxic
- Cmax [29]: 1210 ng/mL
- Activity (Mus musculus [30]): Active
